Data from US20190270712A1, “COMPOSITIONS FOR THE TREATMENT OF PULMONARY FIBROSIS” (Vectus Biosystems Limited, priority 2016, published 2019).

How the values were obtained:
[1] = tested on: human small airway epithelial cells; assay: In vitro screening: xCELLigence SP cellular impedance (cell index); format: cell-based; conditions: 10 μM, 20 μM or 30 μM test compound, 0.25% DMSO, measured every 20 seconds for 3 hours
Method: The xCELLigence SP system (Roche) was used to measure changes in cellular impedance (cell index) following the treatment of human small airway epithelial cells (ATCC) with test compound.
Briefly, 50 μl of cell culture medium (DMEM low glucose supplemented with 15% fetal bovine serum at 37° C.) was added to each well of an E-Plate 96 (Roche), and the background impedance in each well was measured. 50 μl of human small airway epithelial cell suspension (10,000 cells/well) was then added to the appropriate wells of the E-Plate 96. Cell index was monitored for each well of the E-Plate 96 in a RTCA SP Station within the cell culture incubator. After overnight incubation for 16-20 hours at 5% CO2 and 95% humidity, 100 μl of test compound solution (test compounds were prepared in DMSO and diluted with cell culture medium to a concentration of 10 μM, 20 μM or 30 μM of test compound with a final DMSO concentration of 0.25%) was added to the appropriate wells of the E-Plate 96 and cell index values were measured immediately following compound treatment every 20 seconds for 3 hours. Cell index value is baseline-corrected by subtracting the cell index of vehicle-treated cells and normalized by dividing by the cell index at the time point immediately before compound addition. Baseline normalized cell index as a function of time is plotted using Roche RTCA software.

lung fibrosis = assay: In vivo screening: bleomycin-treated spontaneous hypertensive rats, lung fibrosis quantitated by histomorphometry (Masson Trichrome); conditions: SHR given bleomycin at 14 weeks, 500 pmol/kg/min in drinking solution (5% ethanol) for 4 weeks from 16 weeks of age; for Fibrosis in the lung compared to 16 week controls: vs 16 week control (reversal of established fibrosis); for Fibrosis in the lung compared to 20 week controls: vs 20 week vehicle control (prevention)
Method: Fourteen week old spontaneous hypertensive rats (SHR) were anaesthetised using 3% isoflurane, the tongue was gently pulled forward and bleomycin […] in 200 μL of normal saline placed in the distal oropharynx using a micropipette while the nose is gently closed. Rats were then left to recover from anaesthesia. At 16 weeks of age SHR were randomised to control (16 weeks or 20 weeks) or treated groups. The 16 week controls were anaesthetised and had blood sampled and tissues harvested. The 20 week controls received drinking solution alone (5% ethanol) while the treated groups received test compound dissolved in the drinking water with concentration adjusted twice weekly to maintain a dose of 500 pmol/kg/min for 4 weeks. At 20 weeks of age rats were anaesthetised and had blood sampled and tissues harvested.
For histological examination lungs were fixed in formalin and sections from each of two levels were stained using Masson Trichrome. Fibrosis was quantitated by histomorphometry by an observer blinded to experimental group.

CS(=O)(=O)NC1=CC(c2cccc(NS(C)(=O)=O)c2)(c2cnccn2)CC(CCC(N)=O)=C1 (stereo not drawn) [D16, 3-(3′,5-Bis((methylsulfonyl)amino)-1-(pyrazin-2-yl)biphenyl-3-yl)propanamide]
Cellular impedance (baseline normalized cell index) response [1]: Negative impedance responses

NC(=O)CCc1cc(-c2ccccc2)ccc1-c1cccc(O)c1 [VB0004]
Cellular impedance (baseline normalized cell index) response [1]: Negative impedance responses
Fibrosis in the lung compared to 16 week controls (lung fibrosis): decreased
Fibrosis in the lung compared to 20 week controls (lung fibrosis): decreased

NC(CCc1cc(-c2ccccc2)ccc1-c1cccc(O)c1)C(F)(F)F (stereo not drawn) [A6]
Cellular impedance (baseline normalized cell index) response [1]: Negative impedance responses
Fibrosis in the lung compared to 16 week controls (lung fibrosis): decreased
Fibrosis in the lung compared to 20 week controls (lung fibrosis): decreased

CS(=O)(=O)Nc1cc(-c2ccc(-c3cnccn3)cc2CCC(N)=O)ccn1 [D17, 3-[2-(2-[(Methylsulfonyl)amino]pyridin-4-yl)-5-(pyrazin-2-yl)phenyl]propanamide]
Cellular impedance (baseline normalized cell index) response [1]: Negative impedance responses

CS(=O)(=O)Nc1cccc(-c2ccc(-c3cccnc3)cc2CCC(N)=O)c1 [D28, 3-(3′-((Methylsulfonyl)amino)-4-(pyridin-3-yl)biphenyl-2-yl)propanamide]
Cellular impedance (baseline normalized cell index) response [1]: Negative impedance responses

O=C1NCCC1Cc1cc(-c2ccccc2)ccc1-c1cccc(O)c1 (stereo not drawn) [A26]
Cellular impedance (baseline normalized cell index) response [1]: Negative impedance responses

O=C1NCC/C1=C\c1cc(-c2ccccc2)ccc1-c1cccc(O)c1 [A27]
Cellular impedance (baseline normalized cell index) response [1]: Negative impedance responses

NC(=O)CCc1cc(-c2cnccn2)ccc1-c1cc(N)ncn1 [D18, 3-(2-(6-Aminopyrimidin-4-yl)-5-(pyrazin-2-yl)phenyl)propanamide]
Cellular impedance (baseline normalized cell index) response [1]: Negative impedance responses

NC(=O)CCc1cc(-c2cncnc2)ccc1-c1cc(N)ncn1 [D6, 3-(2-(6-Aminopyrimidin-4-yl)-5-(pyrimidin-5-yl)phenyl)propanamide]
Cellular impedance (baseline normalized cell index) response [1]: Negative impedance responses
Fibrosis in the lung compared to 16 week controls (lung fibrosis): decreased
Fibrosis in the lung compared to 20 week controls (lung fibrosis): decreased

NC(=O)CCc1cc(-c2cccnc2)ccc1-c1cccc(NC(=O)Nc2cccc(-c3ccc(-c4cccnc4)cc3CCC(N)=O)c2)c1 [D167]
Cellular impedance (baseline normalized cell index) response [1]: Negative impedance responses

CS(=O)(=O)Nc1cc(NS(C)(=O)=O)cc(-c2ccc(-c3cncnc3)cc2CCC(N)=O)c1 [D4]
Cellular impedance (baseline normalized cell index) response [1]: Negative impedance responses

NC(=O)C=Cc1cc(-c2cncnc2)ccc1-c1ccnc(N)c1 [D171, 3-[2-(2-Aminopyridin-4-yl)-5-(pyrimidin-5-yl)phenyl]propenamide]
Cellular impedance (baseline normalized cell index) response [1]: Negative impedance responses

NC(=O)CCc1cc(-c2cccnc2)ccc1-c1ccc2[nH]c(=O)[nH]c2c1 [D30, 3-(2-(2-Oxo-2,3-dihydro-1H-benzimidazol-5-yl)-5-(pyridin-3-yl)phenyl)propanamide]
Cellular impedance (baseline normalized cell index) response [1]: Negative impedance responses
Fibrosis in the lung compared to 16 week controls (lung fibrosis): decreased
Fibrosis in the lung compared to 20 week controls (lung fibrosis): decreased

NC(=O)CCc1cc(-c2ccncn2)ccc1-c1cccc(O)c1 [P25, 3-[3′-Hydroxy-4-(pyrimidin-4-yl)biphenyl-2-yl]propanamide]
Cellular impedance (baseline normalized cell index) response [1]: Negative impedance responses

NOCCc1cc(-c2ccccc2)ccc1-c1cccc(O)c1 [A56]
Cellular impedance (baseline normalized cell index) response [1]: Negative impedance responses

CS(=O)(=O)Nc1cc(NS(C)(=O)=O)cc(-c2ccc(-c3cccnn3)cc2CCC(N)=O)c1 [D10]
Cellular impedance (baseline normalized cell index) response [1]: Negative impedance responses

CS(=O)(=O)Nc1cccc(-c2ccc(-c3ccc(F)cc3)cc2CCC(N)=O)c1 [D35, 3-(4″-Fluoro-3-((methylsulfonyl)amino)-1,1′:4′,1″-terphenyl-2′-yl)propanamide]
Cellular impedance (baseline normalized cell index) response [1]: Negative impedance responses

Cc1cscc1-c1ccc(-c2cccc(O)c2)c(CCC(N)=O)c1 [P44]
Cellular impedance (baseline normalized cell index) response [1]: Negative impedance responses

CCOC(=O)C(Cc1cc(-c2cncnc2)ccc1-c1cc(N)ncn1)C(=O)OCC [D5, Diethyl (2-(6-aminopyrimidin-4-yl)-5-(pyrimidin-5-yl)benzyl)propanedioate]
Cellular impedance (baseline normalized cell index) response [1]: Negative impedance responses

O=C1NC(=O)C(Cc2cc(-c3ccccc3)ccc2-c2cccc(O)c2)N1 (stereo not drawn) [A32]
Cellular impedance (baseline normalized cell index) response [1]: Negative impedance responses
Fibrosis in the lung compared to 16 week controls (lung fibrosis): decreased
Fibrosis in the lung compared to 20 week controls (lung fibrosis): decreased

CS(=O)(=O)Nc1cc(-c2ccc(-c3cccnn3)cc2CCC(N)=O)ccn1 [D11, 3-(2-(2-((Methylsulfonyl)amino)pyridin-4-yl)-5-(pyridazin-3-yl)phenyl)propanamide]
Cellular impedance (baseline normalized cell index) response [1]: negative deflection

Cc1nc(C)c(-c2ccc(-c3cccc(NS(C)(=O)=O)c3)c(CCC(N)=O)c2)s1 [D32, 4-(2,4-Dimethyl-1,3-thiazol-5-yl)-3-(3′-((methylsulfonyl)amino)biphenyl-2-yl)propanamide]
Cellular impedance (baseline normalized cell index) response [1]: Negative impedance responses

NC(=O)CCc1cc(-c2cccnn2)ccc1-c1cc(N)ncn1 [D12, 3-(2-(6-Aminopyrimidin-4-yl)-5-(pyridazin-3-yl)phenyl)propanamide]
Cellular impedance (baseline normalized cell index) response [1]: Negative impedance responses

NC(=O)CCc1cc(-c2cccnn2)ccc1-c1cccc(O)c1 [P14, 3-[3′-Hydroxy-4-(pyridazin-3-yl)biphenyl-2-yl]propanamide]
Cellular impedance (baseline normalized cell index) response [1]: Negative impedance responses

CNS(=O)(=O)Nc1cccc(-c2ccc(-c3cccnc3)cc2CCC(N)=O)c1 [D31, 3-(3′-((Methylsulfamoyl)amino)-4-(pyridin-3-yl)biphenyl-2-yl)propanamide]
Cellular impedance (baseline normalized cell index) response [1]: Negative impedance responses

Nc1nocc1Cc1cc(-c2ccccc2)ccc1-c1cccc(O)c1 [A35]
Cellular impedance (baseline normalized cell index) response [1]: Negative impedance responses

O=C1CC(Cc2cc(-c3ccccc3)ccc2-c2cccc(O)c2)C(=O)N1 (stereo not drawn) [A30]
Cellular impedance (baseline normalized cell index) response [1]: Negative impedance responses

NC(=O)CCc1cc(-c2cnccn2)ccc1-c1cccc(O)c1 [P13, 3-[3′-Hydroxy-4-(pyrazin-2-yl)biphenyl-2-yl]propanamide]
Cellular impedance (baseline normalized cell index) response [1]: Negative impedance responses
Fibrosis in the lung compared to 20 week controls (lung fibrosis): decreased

O=C1NC(=O)C(Cc2cc(-c3ccccc3)ccc2-c2cccc(O)c2)O1 (stereo not drawn) [A79]
Cellular impedance (baseline normalized cell index) response [1]: Negative impedance responses
Fibrosis in the lung compared to 16 week controls (lung fibrosis): decreased
Fibrosis in the lung compared to 20 week controls (lung fibrosis): decreased

NC(=O)C=Cc1cc(-c2cncnc2)ccc1-c1cc(N)cc(N)c1 [D172, 3-(2-(3,5-Diaminophenyl)-5-(pyrimidin-5-yl)phenyl)propenamide]
Cellular impedance (baseline normalized cell index) response [1]: Negative impedance responses

Cc1ccsc1-c1ccc(-c2cccc(O)c2)c(CCC(N)=O)c1 [P43]
Cellular impedance (baseline normalized cell index) response [1]: Negative impedance responses

Cc1n[nH]c(C)c1-c1ccc(-c2cccc(O)c2)c(CCC(N)=O)c1 [P42]
Cellular impedance (baseline normalized cell index) response [1]: Negative impedance responses
